Assay results: patent publication US8541575B2, “3,4-diarylpyrazoles as protein kinase inhibitors” (Nerviano Medical Sciences S.R.L., priority 2008, dated 2013)

Key:
Format in all cases: cell-based
[1] = test system: human melanoma cells A375 (with a mutated B-RAF); test: In vitro cell proliferation assay, A375; conditions: A-375, 72 hours treatment, cellular ATP readout
Method: (§1) In Vitro Cell Proliferation Assay
(§2) Exponentially growing human melanoma cells A375 (with a mutated B-RAF) and human melanoma cells Mewo (with wild-type B-Raf) were seeded and incubated at 37° C. in a humidified 5% CO2 atmosphere. After 24 hours, scalar doses of the compound were added to the medium and cells oncubated for 72 hours. At the end of treatment, cells were washed and counted. Cell number was determined by a cellular adenosine triphosphate monitoring system. Cell proliferation was compared to control cells and the concentration inhibiting cell growth by 50% was calculated.

[2] = test system: human melanoma cells Mewo (with wild-type B-Raf); test: In vitro cell proliferation assay, Mewo; conditions: 72 hours treatment, cellular ATP readout
Method: as §1, §2

[3] = test system: p-MAPK (T202/Y204) in A375 human melanoma cells, having a mutated B-RAF; test: p-MAPK (T202/Y204) ArrayScan assay; conditions: A-375, treated 1.5 or 2 hours, p-MAPK cytoplasmatic fluorescence, read-out: Array Scan A375 IC50
Method: p-MAPK (T202/Y204) ArrayScan Assay
A375 human melanoma cells, having a mutated B-RAF, are seeded in 384-well poly-lysine coated plates (Matrix) at a density of 1000 cells/well with appropriate medium supplemented with 10% FCS and incubated for 16-24 hours. Cells are treated for 1.5 or 2 hours with increasing doses of compounds (starting dose 10 μM, dilution factor 2.5). At the end of the treatment cells are fixed with p-formaldehyde 3.7% for 15-30 min, then washed twice with D-PBS […] and permeabilized with D-PBS containing 0.1% Triton X-100 and 1% BSA (Sigma-Aldrich) for 15 minutes at room temperature (staining solution). Anti-phospho-MAPK (T202/Y204) monoclonal antibody E10 (Cell Signaling, cat. #9106) diluted 1:100 is added in staining solution and incubated for 1 hour at 37° C. After removal of the primary antibody solution, the anti-mouse Cy™2-conjugated (Green) secondary antibody (Amersham) diluted 1:500 in staining solution containing 2 μg/ml DAPI is added. The plate is incubated for 1 hour at 37° C., washed twice and then red with Cellomics' ArrayScan VTI (4 fields/well, CytoNucTrans algorithm).
The parameter “MEAN_RingAvgIntenCh2”, which measures the mean cytoplasmatic fluorescence intensity associated to p-MAPK staining, is reported as the final result.

Row | IC50 [1] | IC50 [2] | IC50 [3] | Structure (SMILES)
1 | 1.14 µM | > 10 µM | 2.32 µM | CCC(=O)Nc1cc(-c2c[nH]nc2-c2cccc(NC(=O)Nc3ccc(C(F)(F)F)cc3)c2)ccn1 [compound 39, N-(4-{3-[3-({[4-(trifluoromethyl)phenyl]carbamoyl}amino)phenyl]-1H-pyrazol-4-yl}pyridin-2-yl)propanamide]
2 | 3.86 µM | > 10 µM | 1.79 µM | Cn1cc(-c2ccncc2)c(-c2cccc(NC(=O)Nc3ccc(C(F)(F)F)cc3)c2)n1 [Cmpd. 48, 1-[3-(1-Methyl-4-pyridin-4-yl-1H-pyrazol-3-yl)-phenyl]-3-(4-trifluoromethyl-phenyl)-urea]
3 | 7.52 µM | > 10 µM | 5.47 µM | O=S(=O)(Nc1cccc(-c2n[nH]cc2-c2ccncc2)c1)c1ccco1 [Cmpd. 6, Furan-2-sulfonic acid [3-(4-pyridin-4-yl-1H-pyrazol-3-yl)-phenyl]amide]
4 | 0.25 µM | 9.4 µM | < 0.04 µM | CC(=O)Nc1cc(-c2c[nH]nc2-c2cccc(NC(=O)Nc3ccc(C(F)(F)F)cc3)c2)ccn1 [Cmpd. 17, N-[4-(3-{3-[3-(4-Trifluoromethyl-phenyl)-ureido]-phenyl}-1H-pyrazol-4-yl)-pyridin-2-yl]-acetamide]
5 | 2.61 µM | 4.54 µM | 1.59 µM | CCCCn1cc(-c2ccncc2)c(-c2cccc(NC(=O)Nc3ccc(C(F)(F)F)cc3)c2)n1 [compound 49, 1-[3-(1-Butyl-4-pyridin-4-yl-1H-pyrazol-3-yl)-phenyl]-3-(4-trifluoromethyl-phenyl)-urea]
6 | 4.48 µM | > 10 µM | 1.45 µM | Cc1ccc(NC(=O)Nc2cccc(-c3n[nH]cc3-c3ccncc3)c2)cc1 [compound 8, 1-[3-(4-Pyridin-4-yl-1H-pyrazol-3-yl)-phenyl]-3-p-tolyl-urea]
7 | 4.1 µM | > 10 µM | 4.8 µM | O=C(Nc1ccc(Cl)cc1)Nc1cccc(-c2n[nH]cc2-c2ccncc2)c1 [compound 9, 1-(4-Chloro-phenyl)-3-[3-(4-pyridin-4-yl-1H-pyrazol-3-yl)-phenyl]-urea]
8 | 1.4 µM | > 10 µM | 0.64 µM | O=S(=O)(Nc1cccc(-c2n[nH]cc2-c2ccncc2)c1)c1cc(F)ccc1F [Cmpd. 2, 2,5-Difluoro-N-[3-(4-pyridin-4-yl-1H-pyrazol-3-yl)-phenyl]-benzenesulfonamide]
9 | 2.7 µM | > 10 µM | 0.73 µM | Nc1nccc(-c2c[nH]nc2-c2cccc(NC(=O)Nc3ccc(C(F)(F)F)cc3)c2)n1 [compound 31, 1-{3-[4-(2-aminopyrimidin-4-yl)-1H-pyrazol-3-yl]phenyl}-3-[4-(trifluoromethyl)-phenyl]urea]
10 | 2.66 µM | > 10 µM | 0.75 µM | CCOC(=O)n1cc(-c2ccncc2)c(-c2cccc(NC(=O)Nc3ccc(C(F)(F)F)cc3)c2)n1 [Cmpd. 47, 4-Pyridin-4-yl-3-{3-[3-(4-trifluoromethyl-phenyl)-ureido]-phenyl}-pyrazole-1-carboxylic acid ethyl ester]
